From patent US8702927B2, “Multiple-electrode and metal-coated probes” (The Trustees Of The University Of Pennsylvania, priority 2009, dated 2014)
Where “and” joins values, the source holds several entries; their conditions need not be identical. Identical values can stand only once.

How the values were obtained:
[1] = system: GABAA receptor; experiment: CNP-recorded membrane potential of HT-22 cells during pharmacological stimulation (GABA, bicuculline), current-clamp; format: cell-based, mouse
Description: Y-aminobutyric acid (GABA), a principal inhibitory neurotransmitter in the mammalian central nervous system which acts as an agonist for the membrane-bound GABAA receptor, was administered. When GABA binds to the GABAA receptor, the cell hyperpolarizes as a result of C1-ion influx due to the opening of the ligand-gated C1-ion channel. However, the hyperpolarization can be blocked by perfusing cells with bicuculline (BIC), a competitive antagonist for the GABAA receptor which binds to the GABAA receptor and prevents it from opening even in the presence of GABA.
FIG. 10A illustrates how an HT-22 cell responded when GABA was added to the cell bath (12 mM GABA in bath, arrow).
FIG. 10B represents the opposing membrane responses to such stimuli over time.

[2] = system: HT-22 cells; experiment: CNP-recorded membrane potential of HT-22 cells during ionic (K+) enrichment, current-clamp; format: cell-based, mouse; conditions: for depolarization of membrane potential: KCl added to cell bath; for time for cell to return to its RMP: after KCl
Text: Because the cell membrane is highly permeable to potassium ions (K^+), an increase or decrease in extracellular K+ concentration will, respectively, cause a resting cell to depolarize (membrane potential becoming more positive) or hyperpolarize (membrane potential becoming more negative). Utilizing CNPs, variations in membrane potential were monitored over tens of minutes. FIG. 8A is a recording of membrane potential from an HT-22 cell during perfusion intervals with normal HBSS and K+-enriched HBSS (additional 5 mM K^+). […] After approximately 2 min at higher extracellular K^+, the cell was perfused with normal HBSS and the cell slowly returned to its RMP.
Next, a CNP was used to measure changes in membrane potential during repetitive extracellular administration of KCl [FIG. 8B]. After penetrating the cell, as indicated by the arrow in FIG. 8B, the CNP measured a stable RMP under normal HBSS perfusion (Emp=−68 mV). […] Under constant perfusion in normal HBSS, the membrane potential returned to its original value after […]. The results were reproducible with high fidelity.
FIG. 8C is a representation of potential variations as a function of time during the administration of HBSS and the varied K+-enrichment of HBSS (additional 5 and 15 mM K^+). […] As normal HBSS perfusion brought the bath back to its initial K+ concentration, the cell returned to its RMP in ˜90 seconds.
The mouse hippocampal cell line HT-22 was kindly provided by Dr. David Schubert (The Salk Institute, San Diego, Calif.). Cells were grown in Dulbecco's Modified Eagle Medium (DMEM, high glucose) supplemented with 10% fetal bovine serum (FBS) and 1% antibiotics. The cells were plated on 12 mm cover slips 48 hrs prior to the electrophysiology measurements. The cells on the cover slips were incubated in HBSS (with calcium and magnesium) at room temperature for 10 min prior to measurements. The cover slips were subsequently placed in an open diamond perfision bath (Warner Instruments Corp., RC-22C) positioned on an upright microscope (Nikon eclipse E600FN, 40× water-immersion lens, Burleigh Gibraltar fixed-stage platform) located atop a vibration-isolation table. Cells were routinely perfised with HBSS at a flow rate of 1.0 mllmin.
Membrane potential measurements were recorded with an Axon AxoClamp-2A amplifier equipped with a headstage for high resistance electrodes (Axon HS2-XO.OlMU) and Digidata 1322A digitizer (Axon Instruments/Molecular Devices, Sunnyvale, Calif.). Experimental protocols were controlled and data acquired by a personal computer using the Clampex 8.2 software (Axon Instruments). CNPs were inserted into a standard electrode holder until the metal wire of the holder came in contact with the inner carbon film of the CNP. A slight positive pressure was applied through the holder's perfixion port to keep external solution from filling the hollow CNP by capillarity. A micromanipulator (Narishige MHW-3) was used to manipulate and position the CNP electrodes during the electrophysiology measurements. All the electrical measurements were carried out versus an AgIAgCl reference electrode submerged in HBSS in discontinuous current clamp @CC) mode, at zero current, with no capacitance compensation. The CNP potential was nulled (+I-2 mV) with the amplifier offset potential during immersion in HBSS before all electrical measurements. Recorded electrical measurements were not adjusted to compensate for differences in extracellular and intracellular junction potentials.

SMILES | hyperpolarization from the RMP ([1]; 12 mM GABA in bath, normal HBSS perfusion, FIG. 10A, FIG. 10B) | time for cell to return to its RMP ([1]; after 12 mM GABA, constant HBSS perfusion) | depolarization of membrane potential ([2]; additional 5 mM K+, RMP -57 mV, FIG. 8C) | depolarization of membrane potential ([2]; additional 15 mM K+, RMP -57 mV, FIG. 8C, FIG. 10B) | depolarization of membrane potential ([2]; additional 25 mM K+, RMP -68 mV, FIG. 8B) | time for cell to return to its RMP ([2]; additional 5 mM K+, normal HBSS perfusion) | time for cell to return to its RMP ([2]; additional 15 mM K+, HBSS perfusion)
NCCCC(=O)O [GABA, Y-aminobutyric acid] | 10 mV and 12 mV | 30 s and 60 s |  |  |  |  | 
[Cl-].[K+] [KCl, Potassium chloride] |  |  | 10 mV | 30 mV and 25 mV | 40 mV | ~90 s | ~90 s and 60 s
